These results are taken from article PMC5866837, “Towards a generic physiologically based kinetic model to predict in vivo uterotrophic responses in rats by reverse dosimetry of in vitro estrogenicity data” (Archives of Toxicology, 2017).

Structures are written as SMILES. Where two headings read alike, the source gives them in different places. Marks after values point to notes of the source that are not given here.

Data set [1] can be described thus: Substrate depletion approach, in vitro clearance (CLint) with rat liver S9. Type of data set: in vitro ADME. As to conditions: for microsomal CLint at 3 µM / CLint in liver S9 at 3 µM: Sprague-Dawley, rat, liver S9 fraction; for CLint in liver S9 at 3 µM: 3 µM substrate. The text has this:
To develop a generic model, a fast and efficient approach needs to be applied to determine the hepatic clearance. To this end, a substrate depletion approach was used, as described by others (Jones and Houston [2004]; Obach [1999]; Obach and Reed-Hagen [2002]). Metabolic breakdown of the parent compound, referred to as “substrate depletion” is used to measure in vitro CLint of the parent compound, where the consumption rate of the parent compound using hepatic microsomes, hepatic S9 fractions or hepatocytes, is measured over a range of incubation times under linear conditions with respect to protein concentration and substrate concentration (Jones and Houston [2004]).
The CLint of the parent compounds via phase I and phase II metabolism was determined in incubations with liver S9 fraction from both male and female Sprague–Dawley rats, in the presence of all relevant co-factors NADPH, UDPGA, PAPS and acetyl CoA. To investigate whether the in vitro CLint value derived from incubations for individual reactions (with individual co-factors) is similar as the CLint value derived from incubations with all the co-factors together in one mixture, two approaches were applied. In the first approach, the parent compound was incubated with individual co-factors in Eppendorf tubes applying a final volume of 200 µL containing either 3 mM NADPH, 5 mM UDPGA (also including 5 mM MgCl2 and 0.025 mg/ml alamethicin), 0.2 mM PAPS, or 0.5 mM acetyl CoA, with 0.5 mg/ml liver S9 in 0.1 M potassium phosphate (pH 7.4) buffer. After pre-incubating the mixtures at 37 °C for 1 min, the reactions were started by adding 3 µM (final concentration) of the parent compound from a 100 times concentrated stock solution dissolved in DMSO. In the second approach, it was tested whether the methodology could be simplified by adding all the co-factors to one incubation mixture and the parent compound after pre-incubation. For both approaches, 14 time points were selected at which the reaction was terminated, being 0, 1, 2, 3, 4, 5, 7, 8.5, 10, 15, 20, 25, 30 and 45 min. To terminate the reaction 100 µL cold acetonitrile (ACN) was added to the mixture and the Eppendorf tubes were put on ice for 30 min. Subsequently, tubes were centrifuged at 15,000 rpm for 5 min (CT 15RE, Hitachi Koki Co., Ltd) and the supernatant was collected for UPLC analysis. For each incubation time point, a corresponding control was included, which was an incubation performed in the absence of co-factor(s). All incubations were performed in triplicate in three independent studies.
The concentration of the parent compound was quantified for all the incubations using UPLC analysis performed as described below. The ratio of remaining parent compound concentration between incubation sample (C compound) and the control without co-factor (C control) was calculated for each incubation time. Subsequently, the depletion curve of the parent compound [ln(C compound/C control)] against time was derived as described before (Jones and Houston [2004]; Obach [1999]; Obach and Reed-Hagen [2002]). The slope of the linear part of the depletion curve represents the elimination rate constant (k, min^−1) for elimination of the parent compound. Using the following equation, the in vitro clearance (CLint, in vitro) of the parent compound can be estimated: CLint, in vitro (µL/min/mg protein) = V (µL)/P (mg) × k (min^−1) (Obach [1999]; Sjögren et al. [2009]). V represents volume (µL) of incubation mixture and P is the protein amount (mg) in the mixture. The in vitro CLint value derived from incubations with all co-factors together in one mixture (approach 2) was compared with the sum of the CLint values derived from incubations with a single co-factor (approach 1). The in vitro CLint of the parent compound was scaled to a whole liver, assuming that the S9 protein concentration in the rat liver is 87 g/kg liver (Chiu and Ginsberg [2011]).
For BPA, the analytical method was slightly changed based on the method for E2. […]

The conditions of data set [2]: rat, oral, read-out: In vivo C max, cited from earlier work.
For data set [3], the system named is uterus weight in rats. Particulars: oral gavage, cited from earlier work.
For data set [4], the system named is human ERs. Set-up: method as in Kolle et al. [2010]; Wang et al. [2014]. Particulars: ref Kolle et al. [2010]; Wang et al. [2014]; cited from earlier work.
Data set [5] in a line: Rapid equilibrium dialysis (RED), fraction unbound in rat serum. The data set is classed as in vitro ADME. Particulars: RED 5 h at 37 °C, read-out: f ub (fraction unbound). The procedure:
The assay medium used in the ER-CALUX and the proliferation assay contains 5% FCS, so the RED assay was performed using the assay medium for these two assays and for rat serum. The f ub was determined using the protocol described by Waters et al. ([2008]). The RED device insert has two chambers, a plasma and a buffer chamber. […] After incubating for 5 h at 37 °C at 250 rpm on an orbital shaker, the system reaches equilibrium (van […] et al. [2011]). 25 μL of post-dialysis samples were collected from the plasma and buffer chambers in separate tubes. Simultaneously, 25 μL of corresponding buffer (PBS) was added to the sample taken from the plasma chamber and the same volume of corresponding rat serum or in vitro medium was added to the sample taken from the buffer chamber. Then, 300 μL cold precipitation buffer (90/10 ACN/water) was added to both samples to precipitate the proteins and release the compound. The samples were put on ice for 30 min and subsequently centrifuged for 15 min at 15,000×g (CT 15RE, Hitachi Koki Co., Ltd). Then, the supernatants were collected for UPLC analysis. By determining the compound concentration in each chamber, the fraction unbound can be calculated with the following equation: f ub = concentration in buffer chamber/concentration in plasma chamber (van […] et al. [2011]; Waters et al. [2008]). […]

On the set-up of data set [6]: method as in Hansch et al. [1995]. Particulars: ref Hansch et al. [1995]; cited from earlier work.
The mark [7] stands for this setting: female, pH 7.4, female Sprague–Dawley rat liver S9, all co-factors (NADPH, UDPGA, PAPS, acetyl CoA) in one mixture, read-out: Female CLint.
Setting [8] is: male, pH 7.4, male Sprague–Dawley rat liver S9, all co-factors (NADPH, UDPGA, PAPS, acetyl CoA) in one mixture, read-out: Male CLint.
Where [9] appears, read: male, pH 7.4, male Sprague–Dawley rat liver S9, individual co-factor NADPH.
The mark [10] stands for this setting: male, pH 7.4, male Sprague–Dawley rat liver S9, individual co-factor PAPS.
Where [11] appears, read: male, pH 7.4, male Sprague–Dawley rat liver S9, individual co-factor UDPGA.
Where [12] appears, read: male, pH 7.4, male Sprague–Dawley rat liver S9, read-out: CLint, SUM of incubations with individual co-factors.

For the compound `C[C@]12CC[C@@H]3c4ccc(O)cc4CC[C@H]3[C@@H]1CC[C@@H]2O` [E2, 17β-estradiol], the “Female CLint” value in data set [1] (female Sprague–Dawley rat liver S9, all co-factors (NADPH, UDPGA, PAPS, acetyl CoA) in one mixture) is 65.5 ± 12.3 µl/min/mg protein. Also, the figures for the microsomal CLint at 3 µM in data set [1] (setting [7]), in data set [1] (setting [8]) and in data set [1] (setting [12]) were 65.5 µL/min/mg, 175 ± 13.3 µL/min/mg and 182 ± 26.8 µL/min/mg, respectively. The CLint in liver S9 at 3 µM in data set [1] (setting [9]) was 155 ± 26.7 µL/min/mg; in data set [1] (setting [10]) it was 4.4 ± 1.6 µL/min/mg; in data set [1] (setting [11]) it was 23.3 ± 0.9 µL/min/mg. For the same compound, the Cmax in data set [2] (0.02 mg/kg bw, ref Bawarshi-Nassar et al. (1989)) was 0.6 nM; in data set [2] (0.08 mg/kg bw, ref Bawarshi-Nassar et al. (1989)) it was 2.7 nM. The “Mean value of uterus weight” value in data set [3] (rat (AP), 0.01 mg/kg bw, ref Odum et al., 1997) was 37.5 mg; in data set [3] (rat (AP), 0.02 mg/kg bw, ref Odum et al., 1997), 39 mg; in data set [3] (rat (AP), 0.04 mg/kg bw, ref Odum et al., 1997), 38.3 mg; in data set [3] (rat (AP), 0.10 mg/kg bw, ref Odum et al., 1997) it was 68.1 mg; in data set [3] (rat (AP), 0.20 mg/kg bw, ref Odum et al., 1997), 70.9 mg; in data set [3] (rat (AP), 0.40 mg/kg bw, ref Odum et al., 1997) it was 101.7 mg. Also, the “Higher concentrations required for an estrogenic response in the YES assay than in MCF-7/BOS proliferation and U2OS ER-CALUX assays” value in data set [4] was 2 orders of magnitude. In addition, in data set [5], the free fraction (fraction unbound) at 5 h, 5 µM came out at 0.05 ± 0.005. Moreover, the “Log P ow” value in data set [6] is listed as 4.0^a.
On to `CC(C)(c1ccc(O)cc1)c1ccc(O)cc1` [BPA, bisphenol A], for which the “CLint fold higher for female than for male rat liver S9” value in data set [1] (all co-factors in one mixture) worked out at 1.1 fold. Also, the figures for the microsomal CLint at 3 µM in data set [1] (setting [7]), in data set [1] (setting [8]) and in data set [1] (setting [12]) were 432 ± 12.5 µL/min/mg, 392 ± 6.7 µL/min/mg and 403 ± 9.4 µL/min/mg, respectively. In addition, the CLint in liver S9 at 3 µM in data set [1] (setting [9]) stood at 60 ± 4.8 µL/min/mg; in data set [1] (setting [10]), 3.4 ± 2.1 µL/min/mg; in data set [1] (setting [11]), 340 ± 7.8 µL/min/mg. Moreover, the Cmax in data set [2] (10 mg/kg bw, ref Pottenger et al. (2000)) is 175 nM; in data set [2] (100 mg/kg bw, ref Pottenger et al. (2000)) it was 9880 nM. In addition, the “Mean value of uterus weight” value is 23.9 mg in data set [3] (rat (AP), 10 mg/kg bw, ref Tinwell and Ashby 2004); 29.0 mg in data set [3] (rat (AP), 100 mg/kg bw, ref Tinwell and Ashby 2004); 38.5 mg in data set [3] (rat (AP), 300 mg/kg bw, ref Tinwell and Ashby 2004); 41.4 mg in data set [3] (rat (AP), 600 mg/kg bw, ref Tinwell and Ashby 2004); 59.0 mg in data set [3] (rat (AP), 800 mg/kg bw, ref Tinwell and Ashby 2004); 26.8 mg in data set [3] (rat (Sprague–Dawley), 60 mg/kg bw, ref Kanno et al. 2003). Besides, the “Mean value of uterus weight” value is 30.1 mg in data set [3] (rat (Sprague–Dawley), 200 mg/kg bw, ref Kanno et al. 2003); 30.4 mg in data set [3] (rat (Sprague–Dawley), 375 mg/kg bw, ref Kanno et al. 2003); 37.0 mg in data set [3] (rat (Sprague–Dawley), 600 mg/kg bw, ref Kanno et al. 2003); 44.1 mg in data set [3] (rat (Sprague–Dawley), 1000 mg/kg bw, ref Kanno et al. 2003). For the same compound, the “Higher concentrations required for an estrogenic response in the YES assay than in MCF-7/BOS proliferation and U2OS ER-CALUX assays” value in data set [4] is given as 3 orders of magnitude. The fraction unbound at 5 h, 5 µM in data set [5] is 0.04 ± 0.001. The “Log P ow” value in data set [6] is recorded as 3.3^a.

For orientation: fraction unbound means free concentration divided by total concentration.
